Results taken from ChEMBL document CHEMBL5360620, “Diphenyl Ether Derivative Rhexocerins and Rhexocercosporins from the Endophytic Fungus Rhexocercosporidium sp. Dzf14 Active against Gram-Positive Bacteria with Multidrug-Resistance” (J Nat Prod, 2023).
Values after ≈ are worked out from the molar mass of the structure shown.

How the values were obtained:
[1] = tested on: PC-9; assay: Cytotoxicity against human PC-9 cells by MTT assay; type: toxicity, cell-based
[2] = tested on: Escherichia coli; assay: Antibacterial activity against multi-drug resistant Escherichia coli B2 clinical isolate incubated for 18 hrs by broth microdilution method; type: functional
[3] = tested on: Enterococcus faecalis; assay: Antibacterial activity against vancomycin-resistant Enterococcus faecalis 10 incubated for 18 hrs by broth microdilution method; type: functional
[4] = tested on: Pseudomonas aeruginosa; assay: Antibacterial activity against wild-type Pseudomonas aeruginosa PAO1 incubated for 18 hrs by broth microdilution method; type: functional
[5] = tested on: HepG2; assay: Cytotoxicity against human HepG2 cells by MTT assay; type: toxicity, cell-based
[6] = tested on: Staphylococcus aureus; assay: Antibacterial activity against methicillin-resistant Staphylococcus aureus T144 incubated for 18 hrs by broth microdilution method; type: functional
[7] = tested on: PANC-1; assay: Cytotoxicity against human PANC-1 cells by MTT assay; type: toxicity, cell-based
[8] = tested on: HGC-27; assay: Cytotoxicity against human HGC-27 cells by MTT assay; type: toxicity, cell-based
[9] = tested on: HCT-8; assay: Cytotoxicity against human HCT-8 cells by MTT assay; type: toxicity, cell-based

Row | Compound | Activity [1] | MIC [2] [µg/mL] | MIC [3] [µg/mL] | MIC [4] [µg/mL] | Activity [5] | MIC [6] [µg/mL] | Activity [7] | Activity [8] | Activity [9]
1 | COC(=O)c1c(OC)cc2c(c1C)[C@@H](C=C(C)C)C1=C(O2)C(=O)C(C)=CC1=O | Non-Toxic | > 32 | 8 (≈ 20.9 µM) | > 32 | Non-Toxic | 32 (≈ 83.7 µM) | Non-Toxic | Non-Toxic | Non-Toxic
2 | COC(=O)c1c(O)cc2c(c1C)[C@@H](C=C(C)C)c1c(O)cc(C)cc1O2 | Non-Toxic | > 32 | 8 (≈ 22.6 µM) | > 32 | Non-Toxic | 16 (≈ 45.1 µM) | Non-Toxic | Non-Toxic | Non-Toxic
3 | COC(=O)c1c(OC)cc2c(c1C)[C@@H](C=C(C)C)c1c(O)cc(C)c(OC)c1O2 | Non-Toxic | – | – | – | Non-Toxic | – | Non-Toxic | Non-Toxic | Non-Toxic
4 | COC(=O)c1c(OC)cc2c(c1C)[C@@H](C=C(C)C)c1c(O)cc(C)cc1O2 | Non-Toxic | > 32 | 4 (≈ 10.9 µM) | > 32 | Non-Toxic | 4 (≈ 10.9 µM) | Non-Toxic | Non-Toxic | Non-Toxic
5 | COC(=O)c1c(O)cc2c(c1C)[C@@H](C=C(C)C)C1=C(O2)C(=O)C(C)=CC1=O | Non-Toxic | > 32 | 8 (≈ 21.7 µM) | > 32 | Non-Toxic | > 32 | Non-Toxic | Non-Toxic | Non-Toxic
6 | COC(=O)c1c(OC)cc2c(c1C)[C@H](OC)[C@H]1c3c(cc(C)c(O)c3O2)OC1(C)C | Non-Toxic | – | – | – | Non-Toxic | – | Non-Toxic | Non-Toxic | Non-Toxic
7 | COC(=O)c1c(OC)cc2c(c1C)C=C1c3c(cc(C)c(O)c3O2)OC1(C)C | Non-Toxic | – | – | – | Non-Toxic | – | Non-Toxic | Non-Toxic | Non-Toxic
8 | CN[C@H](CC(C)C)C(=O)N[C@H]1C(=O)N[C@@H](CC(N)=O)C(=O)N[C@H]2C(=O)N[C@H]3C(=O)N[C@H](C(=O)N[C@H](C(=O)O)c4cc(O)cc(O)c4-c4cc3ccc4O)[C@H](O)c3ccc(c(Cl)c3)Oc3cc2cc(c3O[C@@H]2O[C@H](CO)[C@@H](O)[C@H](O)[C@H]2O[C@H]2C[C@](C)(N)[C@H](O)[C@H](C)O2)Oc2ccc(cc2Cl)[C@H]1O [VANCOMYCIN] | – | – | > 128 | – | – | – | – | – | –
9 | COLISTIN | – | 2 | – | 0.13 | – | – | – | – | –
10 | COC(=O)c1c(OC)cc2c(c1C)[C@H](O)[C@H]1c3c(cc(C)c(O)c3O2)OC1(C)C | Non-Toxic | – | – | – | Non-Toxic | – | Non-Toxic | Non-Toxic | Non-Toxic
11 | CC(C)=C[C@H]1c2c(O)cc(C)cc2Oc2cc(O)c(C(=O)O)c(C)c21 | Non-Toxic | > 32 | 16 (≈ 47 µM) | > 32 | Non-Toxic | 16 (≈ 47 µM) | Non-Toxic | Non-Toxic | Non-Toxic
12 | COC(=O)c1c(O)cc2c(c1C)C=C1c3c(cc(C)c(O)c3O2)OC1(C)C | Non-Toxic | > 32 | 16 (≈ 43.4 µM) | > 32 | Non-Toxic | 16 (≈ 43.4 µM) | Non-Toxic | Non-Toxic | Non-Toxic
